Test results taken from paper PMC8780549, “Discovery of Small Molecules as Membrane-Bound Catechol-O-methyltransferase Inhibitors with Interest in Parkinson’s Disease: Pharmacophore Modeling, Molecular Docking and In Vitro Experimental Validation Studies” (Pharmaceuticals, 2021).

Legend:
[1] = test system: dopaminergic neuronal cells (N27); assay: MTT cytotoxicity assay in N27 cells; assay type: cell-based; details: Rattus norvegicus, 48 h
[2] = test system: normal human dermal fibroblasts (NHDF); assay: MTT cytotoxicity assay in NHDF cells; assay type: cell-based; details: 48 h
[3] = test system: Liver MBCOMT; details: cited from earlier work
[4] = target: T1, human recombinant MBCOMT (Homo sapiens, UniProt P21964); assay: In-vitro MBCOMT enzymatic inhibition assay (metanephrine from epinephrine, HPLC)
T1 sequence (P21964 1-271): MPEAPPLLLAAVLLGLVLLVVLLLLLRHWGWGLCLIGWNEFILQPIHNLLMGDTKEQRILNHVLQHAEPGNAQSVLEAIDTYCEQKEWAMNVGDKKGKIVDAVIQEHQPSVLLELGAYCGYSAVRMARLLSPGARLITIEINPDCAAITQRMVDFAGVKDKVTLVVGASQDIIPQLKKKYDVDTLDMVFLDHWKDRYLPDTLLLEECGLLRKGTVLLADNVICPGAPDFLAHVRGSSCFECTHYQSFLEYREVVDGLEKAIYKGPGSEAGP

[5] = IC50 (nM), Recombinant MBCOMT, this work, means with 95% confidence (n = 2 to 3)
[6] = IC50, Recombinant MBCOMT, bound stated

inhibition at 10 µM [4]	inhibition at 100 µM [4]	IC50 [4, 5]	IC50 [4, 6]	SMILES	IC50 [1]	IC50 ([2]; Homo sapiens)	IC50 [3]	IC50 [2]	IC50 ([2]; Homo sapiens, NHDF)
				O=c1[nH]cc(F)c(=O)[nH]1 [Compound 5-FU, 5-fluorouracil, reference compound]	4.28 µM	5.16 µM			
				Cc1ccc(C(=O)c2cc(O)c(O)c([N+](=O)[O-])c2)cc1 [Tolcapone]			0.123 µM		
100%	100%	944 nM	< 1000 nM	C/C(=N\Cc1ccccc1)c1ccc(O)c(O)c1O [ZINC98288]	69.8 µM	> 100 µM			
56%	100%	1080 nM		Cc1[nH]nc(-c2ccc(O)c(O)c2O)c1Oc1ccccc1 [ZINC302226]	52.5 µM	> 100 µM			
				N#Cc1cc(O)c(O)c([N+](=O)[O-])c1 [ZINC27985035]	61.3 µM			40.3 µM	40.3 µM
100%	100%			COC(=O)c1cc(O)c(O)c([N+](=O)[O-])c1 [ZINC38175059]					
40%	43%			Cc1cc(=O)oc2c(O)c(O)c(C(=O)O)cc12 [ZINC68675288]					
81%	100%	470 nM	< 1000 nM	O=Cc1cc([N+](=O)[O-])c(O)c(O)c1Br [ZINC78496496]	> 100 µM	92.9 µM			
41%	46%			CC(C)Cn1c(-c2cc(-c3ccc(O)c(O)c3O)nc3c2c(O)nn3C(C)C)nc2ccccc21 [ZINC95473053]					
72%	100%	1540 nM		Cc1ccc(/N=C/c2c(O)c(O)cc3ccccc23)cc1 [ZINC825166420]	17 µM	12.1 µM			
14%	27%			COc1ccc(-c2nc(-c3cccc(O)c3O)[nH]c2-c2oc(C)cc(=O)c2O)cc1 [ZINC1547205762]					

SMILES	inhibition at 10 µM [4]	inhibition at 100 µM [4]	IC50 [4, 5]	IC50 [4, 6]	IC50 [1]	IC50 ([2]; Homo sapiens)	IC50 [3]	IC50 [2]	IC50 ([2]; Homo sapiens, NHDF)
C[C@@]1(C(=O)O)CC[C@]2(C)CC[C@]3(C)C4=CC(=O)c5c(cc(O)c(O)c5C=O)[C@@]4(C)CC[C@@]3(C)[C@@H]2C1 [ZINC605706834]	39%	34%							
